This note sets out measurements from patent publication US20100297223A1, “PHARMACEUTICAL DOSAGE FORM COMPRISING A LIQUID OR FLOWABLE CORE COMPOSITION” (ABBOTT GMBH & CO. KG, priority 2007, published 2010).

One data set is described as follows: Miscibility with water. In kind it is physicochemical.
Data set [1] can be described thus: Water activity aw of capsule fill (Pawkit water activity meter). To be noted: fill emptied from gelatine capsules size 00, 24 h after capsule preparation. Type of data set: physicochemical. From the text:
Water activity aw is a measure of unbound free water in a system that is available to support chemical (or biological) reactions. It is defined as the vapour pressure of water divided by that of pure water at the same temperature. When a composition is in moisture equilibrium with its environment, its water activity is quantitatively equal to the relative humidity in head space of a container containing the composition, divided by 100. In particular during prolonged periods of storage, an excess of free water will migrate into the capsule shell and soften and eventually liquefy the capsule material. There are several factors that control water activity in a system. Dissolved species, e.g. salts, or sugars, interact with water through dipole-dipole, ionic, and hydrogen bonds. […] Water activity can be measured with commercially available equipment, such as the Pawkit water activity meter available from Decagon Devices, Inc. For the purposes herein, the water activity aw is suitably measured at a temperature of 25° C. […]
Twenty-four hours after the capsule preparation, the initial values of water activity and mechanical strength of the capsule shell were measured.
Capsules were stored for three months at 25° C., 60% relative humidity and 40° C., 75% relative humidity, respectively. Then, water activity and mechanical strength of the capsule shell were measured. […]

As to `CC(CCN1CCCC1=O)N1CCCC1=O` (centres unmarked) [1,3-bis-(pyrrolidon-1-yl)-butane], in the data set “Miscibility with water”, the Miscibility with water result is recorded as “miscible with water in any ratio”. Besides, the “aw (water activity), Initial” value in data set [1] came out at 0.12.
